We go through 19 molecules from patent publication US9464064B2, “HCV helicase inhibitors and methods of use thereof” (University of Kansas, priority 2011, dated 2016).

The structures appear in SMILES notation.

This assay has as its target T1, HCV NS3 helicase NS3h_1b(con1) (Hepatitis C virus genotype 1b, UniProt Q9WMX2).
T1 construct: truncated C-terminally His-tagged NS3 proteins lacking the N-terminal protease, called NS3h; His-tag (C); made in house
Nature of the assay: MBHA screen of NCI mechanistic set library at 20 μM (percent inhibition, compound interference). Particulars: compounds at 20 μM; for Inh. (%) (Inhibition): calculated from Equation 1. It counts as biochemical. The method in brief:
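Molecular beacon-based DNA unwinding assay; compounds screened at 20 μM in triplicate, with DMSO-only negative and 500 nM dT20 positive controls. Fluorescence (ex 643/em 670 nm) was read before and 30 min after adding ATP to 1 mM. Percent inhibition came from the change relative to DMSO controls; interference from pre-ATP fluorescence versus DMSO controls.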

Setting [1] is: MBHA with DNA substrate, assay interference calculated with Equation 2.
The mark [2] stands for this setting: assay interference calculated with Equation 2 (fluorescence vs DMSO-only controls before ATP).

T1 sequence (Q9WMX2 1192-1657): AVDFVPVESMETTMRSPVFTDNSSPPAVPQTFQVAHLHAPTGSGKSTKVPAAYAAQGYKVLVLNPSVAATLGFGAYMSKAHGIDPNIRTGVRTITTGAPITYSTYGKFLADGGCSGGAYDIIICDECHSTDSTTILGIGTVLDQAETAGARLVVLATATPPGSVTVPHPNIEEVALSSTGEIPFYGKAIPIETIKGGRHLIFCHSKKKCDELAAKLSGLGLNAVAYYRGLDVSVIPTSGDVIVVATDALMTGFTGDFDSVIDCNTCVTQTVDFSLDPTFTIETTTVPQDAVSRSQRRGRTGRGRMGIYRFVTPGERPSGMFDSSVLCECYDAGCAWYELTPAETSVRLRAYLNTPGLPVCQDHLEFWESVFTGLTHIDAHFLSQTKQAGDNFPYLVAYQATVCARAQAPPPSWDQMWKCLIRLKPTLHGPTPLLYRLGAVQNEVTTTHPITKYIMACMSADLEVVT

With `C=C1C(=O)OCC2C(C(=O)O)=CC3C(C)C(C)=CC123` (centres unmarked) [Compound 145150], the “Int.* (Ratio) (Interference)” value under setting [1] was 1.12 Ratio. Under “MBHA with DNA substrate”, the “Inh. (%) (Inhibition)” value was −11.3%.

Turning to `CC(C)(C)CC(C)(C)NCC(O)COc1ccc(C(C)(C)c2ccc(OCC(O)CNC(C)(C)CC(C)(C)C)cc2)cc1.Cl` (centres unmarked) [Compound 145366], under setting [1], the “Int.* (Ratio) (Interference)” value was 0.53 Ratio. For the same molecule, the “Inh. (%) (Inhibition)” value (MBHA with DNA substrate) is recorded as 33.1%.

As for `O=C1NC(c2cccc3ccccc23)Nc2ccccc21` (centres unmarked) [Compound 145669], the “Int.* (Ratio) (Interference)” value under setting [1] is listed as 1.14 Ratio. The “Inh. (%) (Inhibition)” value (MBHA with DNA substrate) is given as 14.8%.

Take `O=c1cnn(C2OC(CO)C(O)C2O)c(=S)[nH]1` (centres unmarked) [Compound 146268]: the “Int.* (Ratio) (Interference)” value under setting [1] is listed as 1.15 Ratio. For the same molecule, for the setting “MBHA with DNA substrate”, the “Inh. (%) (Inhibition)” value is on record as 0.2%.

Turning to `COc1cc2c[n+](C)c3c4cc5c(cc4ccc3c2cc1OC)OCO5` [Compound 146397], the “Int.* (Ratio) (Interference)” value under setting [1] is reported as 0.67 Ratio. In addition, under “MBHA with DNA substrate”, the “Inh. (%) (Inhibition)” value was 34.3%.

For the molecule `O=c1[nH]c(=O)n(C2OC(CO)C(O)C2O)cc1F` (centres unmarked) [Compound 146604], the “Int.* (Ratio) (Interference)” value under setting [1] is on record as 1.12 Ratio. For the same molecule, the “Inh. (%) (Inhibition)” value (MBHA with DNA substrate) is recorded as 6.1%.

For `COc1ccc(C[C@@H]2NC[C@@H](O)[C@@H]2OC(C)=O)cc1.Cl` [Compound 147340], under “MBHA with a DNA substrate”, the “Inh. (%) (Inhibition)” value is given as −5.2%. For the same molecule, the “Int.* (Ratio) (Interference)” value under setting [2] was 1.01 Ratio.

As to `O=c1[nH]c(=O)n(C2CCCO2)cc1F` (centres unmarked) [Compound 148958], under setting [1], the “Int.* (Ratio) (Interference)” value is given as 0.99 Ratio. Where the note is “MBHA with DNA substrate”, the “Inh. (%) (Inhibition)” value was −8.9%.

Turning to `COc1cc(NC(C)CCCN)c2ncccc2c1.O=P(O)(O)O.O=P(O)(O)O` (centres unmarked) [Compound 149765], under setting [1], the “Int.* (Ratio) (Interference)” value is listed as 0.94 Ratio. The “Inh. (%) (Inhibition)” value (MBHA with DNA substrate) is 13.2%.

Turning to `COc1cc2cc(c1Cl)N(C)C(=O)C[C@H](OC(=O)[C@H](C)N(C)C(C)=O)[C@]1(C)O[C@H]1[C@H](C)[C@@H]1C[C@@](O)(NC(=O)O1)[C@H](OC)/C=C/C=C(\C)C2` [Compound 153858], under setting [1], the “Int.* (Ratio) (Interference)” value is 0.95 Ratio. For the same molecule, for the setting “MBHA with DNA substrate”, the “Inh. (%) (Inhibition)” value was 0.3%.

Consider `COC(=O)Nc1nc2ccc(Br)cc2[nH]1` [Compound 154754], for which the “Inh. (%) (Inhibition)” value (MBHA with a DNA substrate) is 7.6%. Moreover, the “Int.* (Ratio) (Interference)” value under setting [2] is 0.91 Ratio.

As to `COc1cc2cc3c4cc(OC)c(OC)cc4cc[n+]3c(C)c2cc1OC.O=C(O)CS(=O)(=O)[O-]` [Compound 154890], under setting [1], the “Int.* (Ratio) (Interference)” value is 0.29 Ratio. For the same molecule, the “Inh. (%) (Inhibition)” value (MBHA with DNA substrate) is reported as 79.4%.

With `N#CC1CC(c2ccccc2)Nc2cc(Cl)ccc2N1` (centres unmarked) [Compound 155595], under setting [1], the “Int.* (Ratio) (Interference)” value is on record as 1.17 Ratio. Besides, under “MBHA with DNA substrate”, the “Inh. (%) (Inhibition)” value was 2.3%.

Take `COC(=O)[C@@H]1[C@H](O)[C@H](C)[C@H](O)[C@H](C)/C=C\C=C(/C)C(=O)Nc2c(C)c(OC(C)=O)c3c(c2O)C(=O)C(C)=C2OCOC(=C23)/C(C)=C/[C@@](C)(O)[C@H](O)[C@@H](C)[C@H]1OC(C)=O` [Compound 156215]: where the note is “MBHA with a DNA substrate”, the “Inh. (%) (Inhibition)” value is recorded as −23.4%. In addition, the “Int.* (Ratio) (Interference)” value under setting [2] is on record as 1.02 Ratio.

Take `CC(=O)OCc1cc(=O)n(C)c2c3c4c(cc12)c(C)cc(=O)n4CO3` [Compound 157004]: the “Inh. (%) (Inhibition)” value (MBHA with a DNA substrate) is 7.1%. Under setting [2], the “Int.* (Ratio) (Interference)” value is given as 1.11 Ratio.

With `CCN(CC)CCCC(C)Nc1ccnc(/C=C/c2ccc(Cl)cc2)c1` (centres unmarked) [Compound 157389], the “Inh. (%) (Inhibition)” value (MBHA with a DNA substrate) is 10.6%. The “Int.* (Ratio) (Interference)” value under setting [2] is listed as 0.88 Ratio.

Turning to `Cc1ccc([S+](c2ccc(C)cc2)c2ccc(C)cc2)cc1` [Compound 157930], the “Inh. (%) (Inhibition)” value (MBHA with a DNA substrate) is reported as 7.6%. Further, under setting [2], the “Int.* (Ratio) (Interference)” value is 0.86 Ratio.

With `CCOC(=O)/C=C/c1c(C)[nH]c(=O)[nH]c1=O` [Compound 159935], the “Int.* (Ratio) (Interference)” value under setting [1] is reported as 0.89 Ratio. For the same molecule, the “Inh. (%) (Inhibition)” value (MBHA with DNA substrate) is −0.8%.

Take `COc1ccc2cc3[n+](cc2c1OC)CCc1cc2c(cc1-3)OCO2.[Cl-]` [Compound 163088]: under setting [1], the “Int.* (Ratio) (Interference)” value was 0.87 Ratio. Moreover, the “Inh. (%) (Inhibition)” value (MBHA with DNA substrate) is 13.3%.
